This is an account of results in ChEMBL document CHEMBL1201862, “PubChem BioAssay data set” (2004).

Assay [1] is described as follows: Counterscreen for IDE inhibitors: Luminescence-based cell-based high throughput dose response assay to identify compounds that are cytotoxic to HEK cells. [Related pubchem assays: 434962 (Primary screen (IDE inhibitors in singlicate)), 449730 (Counterscreen (Cytotoxicity in triplicate)), 435028 (Confirmation (IDE inhibitors in triplicate)) …. In kind it is functional. As to conditions: HEK293.

Assay [2] deals with DNA dC->dU-editing enzyme APOBEC-3A (Homo sapiens, UniProt P31941). In words: Dose Response confirmation of small molecule APOBEC3A DNA Deaminase Inhibitors via a fluorescence-based single-stranded DNA deaminase assay. [Related pubchem assays (depositor defined):AID493011, AID493024]. Type of assay: functional.
Sequence of DNA dC->dU-editing enzyme APOBEC-3A (P31941 whole entry): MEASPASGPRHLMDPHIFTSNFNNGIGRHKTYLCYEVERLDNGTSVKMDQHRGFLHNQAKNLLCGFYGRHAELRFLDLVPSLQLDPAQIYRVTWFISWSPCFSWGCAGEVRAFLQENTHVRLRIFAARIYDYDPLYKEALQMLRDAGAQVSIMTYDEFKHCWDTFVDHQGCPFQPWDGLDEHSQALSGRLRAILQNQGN
Assay [3] deals with DNA dC->dU-editing enzyme APOBEC-3G (Homo sapiens, UniProt Q9HC16). In kind it is functional.
Sequence of DNA dC->dU-editing enzyme APOBEC-3G (Q9HC16 whole entry): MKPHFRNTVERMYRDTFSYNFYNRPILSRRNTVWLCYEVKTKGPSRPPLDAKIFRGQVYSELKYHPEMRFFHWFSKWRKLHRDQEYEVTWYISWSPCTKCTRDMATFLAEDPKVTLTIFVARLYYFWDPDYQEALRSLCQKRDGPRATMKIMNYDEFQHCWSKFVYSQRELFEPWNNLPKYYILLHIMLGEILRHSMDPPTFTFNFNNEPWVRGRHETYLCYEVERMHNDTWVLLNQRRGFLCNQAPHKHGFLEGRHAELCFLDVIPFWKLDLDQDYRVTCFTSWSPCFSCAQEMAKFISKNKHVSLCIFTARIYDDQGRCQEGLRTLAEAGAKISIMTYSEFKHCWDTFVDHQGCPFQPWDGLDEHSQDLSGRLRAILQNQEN
The target in assay [4] is T1, Insulin-degrading enzyme (Homo sapiens, UniProt P14735).
T1 sequence (P14735 whole entry): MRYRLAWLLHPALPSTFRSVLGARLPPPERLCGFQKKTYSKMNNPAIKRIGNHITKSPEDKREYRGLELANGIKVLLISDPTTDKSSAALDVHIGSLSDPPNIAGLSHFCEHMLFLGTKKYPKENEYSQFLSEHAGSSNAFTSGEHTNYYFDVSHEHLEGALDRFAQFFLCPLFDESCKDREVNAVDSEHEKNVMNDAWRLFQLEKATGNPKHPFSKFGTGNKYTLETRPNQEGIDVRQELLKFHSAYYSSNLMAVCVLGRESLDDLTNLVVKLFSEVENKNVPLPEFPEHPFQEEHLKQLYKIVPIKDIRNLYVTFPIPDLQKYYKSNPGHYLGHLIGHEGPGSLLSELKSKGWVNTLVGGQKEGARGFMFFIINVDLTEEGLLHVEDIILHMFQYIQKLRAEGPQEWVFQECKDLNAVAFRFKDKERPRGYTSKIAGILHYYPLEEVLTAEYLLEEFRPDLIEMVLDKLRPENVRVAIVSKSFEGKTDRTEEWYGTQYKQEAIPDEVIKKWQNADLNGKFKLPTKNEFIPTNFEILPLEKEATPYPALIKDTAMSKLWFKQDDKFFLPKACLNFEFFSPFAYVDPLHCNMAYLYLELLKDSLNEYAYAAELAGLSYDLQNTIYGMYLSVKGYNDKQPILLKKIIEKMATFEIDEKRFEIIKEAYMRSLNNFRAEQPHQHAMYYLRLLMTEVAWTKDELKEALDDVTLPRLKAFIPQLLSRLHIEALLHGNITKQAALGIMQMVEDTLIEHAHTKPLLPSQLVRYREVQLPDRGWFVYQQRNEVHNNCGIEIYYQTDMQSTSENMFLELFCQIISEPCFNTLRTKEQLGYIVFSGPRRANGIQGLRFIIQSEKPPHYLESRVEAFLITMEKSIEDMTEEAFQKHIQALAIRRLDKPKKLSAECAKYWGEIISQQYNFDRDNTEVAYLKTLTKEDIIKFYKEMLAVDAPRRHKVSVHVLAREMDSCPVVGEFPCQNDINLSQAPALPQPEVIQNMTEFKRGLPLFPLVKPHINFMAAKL
Kind of assay: Dose Response: Fluorescence polarization-based cell-based high throughput dose response assay for inhibitors of insulin-degrading enzyme (IDE). [Related pubchem assays: 434962 (Primary screen (IDE inhibitors in singlicate)), 449730 (Counterscreen (Cytotoxicity in triplicate)), 435028 (Confirmation (IDE inhibitors in triplicate)), 434984 (Summary …. In kind it is functional.

Assay [5] deals with T2, Neuropeptide Y receptor type 2 (Homo sapiens, UniProt P49146).
T2 sequence (P49146 whole entry): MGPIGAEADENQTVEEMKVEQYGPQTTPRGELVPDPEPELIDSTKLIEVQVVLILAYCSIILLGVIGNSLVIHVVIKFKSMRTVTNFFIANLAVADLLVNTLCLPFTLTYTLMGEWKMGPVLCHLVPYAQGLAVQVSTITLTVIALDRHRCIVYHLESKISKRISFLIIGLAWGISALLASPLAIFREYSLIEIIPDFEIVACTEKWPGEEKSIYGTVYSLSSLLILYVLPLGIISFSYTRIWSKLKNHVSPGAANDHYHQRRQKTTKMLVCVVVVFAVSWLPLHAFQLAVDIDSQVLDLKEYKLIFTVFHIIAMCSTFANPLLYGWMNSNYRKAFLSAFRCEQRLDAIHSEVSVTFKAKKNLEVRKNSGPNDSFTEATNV
Kind of assay: Fluorescence-based cell-based high-throughput dose response assay for agonists of NPY-Y2. [Related pubchem assays: 1703 (Screening assay (CNGC inhibitors).), 1359 (Screening assay (NPY-Y2 potentiators or agonists).), 1304 (Screening assay (NPY-Y1 potentiators or agonists).), 1710 (Screening assay (NPY-Y2 agonists).), 1791 (Summary AID.)]. Type of assay: functional.

Assay [6] concerns the target T3, Neuropeptide Y receptor type 1 (Homo sapiens, UniProt P25929).
T3 sequence (P25929 whole entry): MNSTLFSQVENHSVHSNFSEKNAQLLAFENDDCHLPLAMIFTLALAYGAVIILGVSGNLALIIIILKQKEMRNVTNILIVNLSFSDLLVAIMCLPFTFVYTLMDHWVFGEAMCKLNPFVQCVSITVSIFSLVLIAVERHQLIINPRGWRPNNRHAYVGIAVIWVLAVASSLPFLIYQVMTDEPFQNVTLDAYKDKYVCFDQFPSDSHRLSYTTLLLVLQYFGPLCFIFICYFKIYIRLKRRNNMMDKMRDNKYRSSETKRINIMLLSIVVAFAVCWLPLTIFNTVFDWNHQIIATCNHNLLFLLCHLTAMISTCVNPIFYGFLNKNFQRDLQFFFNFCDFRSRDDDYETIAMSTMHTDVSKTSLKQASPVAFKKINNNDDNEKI
Kind of assay: Fluorescence-based counterscreen for agonists of NPY-Y2: cell-based high-throughput dose response assay for agonists of NPY-Y1. Type of assay: functional.

For assay [7], the system named is HEK293. In words: Fluorescence-based counterscreen for potentiators or agonists of NPY-Y2: cell-based high-throughput dose response assay to identify inhibitors of cyclic nucleotide gated ion channel (CNGC) activity. In this assay, the parental HEK293 cell line transfected with a cyclic-nucleotide gated ion channel (CNGC)-based cAMP sensor is used to measure inhibition of isoproterenol-induced CNGC activity by test compound. Type of assay: functional. As to conditions: Homo sapiens.

The target in assay [8] is Guanyl-specific ribonuclease T1 (Aspergillus oryzae (strain ATCC 42149 / RIB 40), UniProt P00651). Kind of assay: RNase T1 inhibitors, dose response, counter-screen for TPT1 inhibitor project, biochemical, fluorescence polarization, 1536-well (AID 2167).
Sequence of Guanyl-specific ribonuclease T1 (P00651 whole entry): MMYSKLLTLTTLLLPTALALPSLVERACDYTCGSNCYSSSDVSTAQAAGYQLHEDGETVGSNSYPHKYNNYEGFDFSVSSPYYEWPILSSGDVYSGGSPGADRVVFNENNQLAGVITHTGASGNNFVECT
The target in assay [9] is Likely tRNA 2'-phosphotransferase (Candida albicans (strain SC5314 / ATCC MYA-2876) (Yeast), UniProt Q5A7N4). Kind of assay: TPT1 tRNA phosphotransferase inhibitors, dose response, biochemical, fluorescence polarization (AID 2160).
Sequence of Likely tRNA 2'-phosphotransferase (Q5A7N4 whole entry, the tested form may be a part): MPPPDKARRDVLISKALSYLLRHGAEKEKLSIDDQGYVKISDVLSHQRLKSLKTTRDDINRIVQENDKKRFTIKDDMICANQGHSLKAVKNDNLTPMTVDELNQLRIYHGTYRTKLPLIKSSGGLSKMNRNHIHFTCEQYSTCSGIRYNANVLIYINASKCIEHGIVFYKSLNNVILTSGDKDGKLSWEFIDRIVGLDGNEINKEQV
Assay [10] deals with Nucleotide-binding oligomerization domain-containing protein 2 (Homo sapiens, UniProt Q9HC29). Kind of assay: PubChem AID 2334. Type of assay: functional.
Sequence of Nucleotide-binding oligomerization domain-containing protein 2 (Q9HC29 whole entry, the tested form may be a part): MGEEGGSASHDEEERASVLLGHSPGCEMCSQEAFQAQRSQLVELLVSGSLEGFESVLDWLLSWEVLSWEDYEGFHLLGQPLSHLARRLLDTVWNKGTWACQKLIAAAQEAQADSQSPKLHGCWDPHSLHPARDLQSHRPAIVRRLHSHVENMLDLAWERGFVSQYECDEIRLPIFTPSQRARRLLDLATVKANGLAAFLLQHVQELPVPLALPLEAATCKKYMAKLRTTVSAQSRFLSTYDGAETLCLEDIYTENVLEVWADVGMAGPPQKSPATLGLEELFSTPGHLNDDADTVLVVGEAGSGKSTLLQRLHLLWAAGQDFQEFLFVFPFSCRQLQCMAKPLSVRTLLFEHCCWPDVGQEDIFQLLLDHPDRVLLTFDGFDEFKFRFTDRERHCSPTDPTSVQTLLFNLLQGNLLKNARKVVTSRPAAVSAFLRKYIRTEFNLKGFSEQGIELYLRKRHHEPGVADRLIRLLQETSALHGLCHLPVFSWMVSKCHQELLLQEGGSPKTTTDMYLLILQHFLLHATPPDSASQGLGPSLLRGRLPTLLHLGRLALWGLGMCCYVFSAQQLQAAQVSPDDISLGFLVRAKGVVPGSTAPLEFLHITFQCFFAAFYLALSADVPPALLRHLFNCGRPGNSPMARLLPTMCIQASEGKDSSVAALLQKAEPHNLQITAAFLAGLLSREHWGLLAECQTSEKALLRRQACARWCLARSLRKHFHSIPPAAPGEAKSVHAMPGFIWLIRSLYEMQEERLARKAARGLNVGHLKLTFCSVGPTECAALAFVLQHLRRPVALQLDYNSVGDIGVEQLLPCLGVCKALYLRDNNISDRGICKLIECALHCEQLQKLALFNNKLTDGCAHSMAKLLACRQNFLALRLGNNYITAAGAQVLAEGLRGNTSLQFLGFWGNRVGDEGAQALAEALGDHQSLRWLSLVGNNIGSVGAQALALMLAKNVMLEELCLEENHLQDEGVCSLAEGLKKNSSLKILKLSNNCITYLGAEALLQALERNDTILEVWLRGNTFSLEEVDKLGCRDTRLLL
The test system of assay [11] is HEK293. Kind of assay: cells. As to conditions: Homo sapiens.
In assay [12] the target is Tumor necrosis factor (Homo sapiens, UniProt P01375). Kind of assay: TNFa-triggered NF-kB activation inhibitors, SAR follow-up, cell-based, revised (AID 2337). Type of assay: functional.
Sequence of Tumor necrosis factor (P01375 whole entry, the tested form may be a part): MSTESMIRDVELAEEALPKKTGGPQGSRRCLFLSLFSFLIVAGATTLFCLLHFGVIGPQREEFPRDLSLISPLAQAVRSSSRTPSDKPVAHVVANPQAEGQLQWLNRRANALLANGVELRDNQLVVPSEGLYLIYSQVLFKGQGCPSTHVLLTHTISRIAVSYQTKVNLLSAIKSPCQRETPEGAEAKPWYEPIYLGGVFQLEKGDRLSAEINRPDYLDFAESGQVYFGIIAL
Assay [13] deals with T4, Nucleotide-binding oligomerization domain-containing protein 1 (Homo sapiens, UniProt Q9Y239).
T4 sequence (Q9Y239 whole entry): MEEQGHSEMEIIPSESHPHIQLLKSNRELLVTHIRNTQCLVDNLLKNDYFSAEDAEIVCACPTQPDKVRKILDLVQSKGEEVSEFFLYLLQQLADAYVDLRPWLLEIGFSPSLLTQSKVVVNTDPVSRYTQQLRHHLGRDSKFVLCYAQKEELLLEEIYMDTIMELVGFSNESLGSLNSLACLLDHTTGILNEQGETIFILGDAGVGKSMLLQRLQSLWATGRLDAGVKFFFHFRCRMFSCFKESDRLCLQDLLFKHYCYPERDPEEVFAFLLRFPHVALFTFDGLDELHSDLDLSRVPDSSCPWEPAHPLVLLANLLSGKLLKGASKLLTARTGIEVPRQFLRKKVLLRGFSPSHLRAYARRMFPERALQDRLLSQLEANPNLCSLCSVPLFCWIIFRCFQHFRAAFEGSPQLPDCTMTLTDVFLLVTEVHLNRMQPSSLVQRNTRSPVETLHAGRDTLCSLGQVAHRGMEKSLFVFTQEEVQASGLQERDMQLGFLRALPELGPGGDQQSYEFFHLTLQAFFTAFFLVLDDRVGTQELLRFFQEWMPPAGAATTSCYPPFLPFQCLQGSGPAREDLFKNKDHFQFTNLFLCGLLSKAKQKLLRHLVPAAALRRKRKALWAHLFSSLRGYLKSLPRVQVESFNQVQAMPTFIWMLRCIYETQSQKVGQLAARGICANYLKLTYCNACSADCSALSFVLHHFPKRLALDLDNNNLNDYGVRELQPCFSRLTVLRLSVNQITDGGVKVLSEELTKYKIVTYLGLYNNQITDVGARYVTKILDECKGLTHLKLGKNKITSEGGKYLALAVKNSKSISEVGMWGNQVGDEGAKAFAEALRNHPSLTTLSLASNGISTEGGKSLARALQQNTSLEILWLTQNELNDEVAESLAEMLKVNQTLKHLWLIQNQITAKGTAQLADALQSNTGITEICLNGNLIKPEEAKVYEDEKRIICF
In words: NOD1 signaling inhibitors, SAR follow-up, revised (AID 2333). Type of assay: functional.

The target in assay [14] is Polyadenylate-binding protein 1 (Homo sapiens, UniProt P11940). In words: PABP poly(A) RNA binding inhibitors, primary screen, biochemical, fluorescence polarization, uHTS (AID 2014).
Sequence of Polyadenylate-binding protein 1 (P11940 whole entry): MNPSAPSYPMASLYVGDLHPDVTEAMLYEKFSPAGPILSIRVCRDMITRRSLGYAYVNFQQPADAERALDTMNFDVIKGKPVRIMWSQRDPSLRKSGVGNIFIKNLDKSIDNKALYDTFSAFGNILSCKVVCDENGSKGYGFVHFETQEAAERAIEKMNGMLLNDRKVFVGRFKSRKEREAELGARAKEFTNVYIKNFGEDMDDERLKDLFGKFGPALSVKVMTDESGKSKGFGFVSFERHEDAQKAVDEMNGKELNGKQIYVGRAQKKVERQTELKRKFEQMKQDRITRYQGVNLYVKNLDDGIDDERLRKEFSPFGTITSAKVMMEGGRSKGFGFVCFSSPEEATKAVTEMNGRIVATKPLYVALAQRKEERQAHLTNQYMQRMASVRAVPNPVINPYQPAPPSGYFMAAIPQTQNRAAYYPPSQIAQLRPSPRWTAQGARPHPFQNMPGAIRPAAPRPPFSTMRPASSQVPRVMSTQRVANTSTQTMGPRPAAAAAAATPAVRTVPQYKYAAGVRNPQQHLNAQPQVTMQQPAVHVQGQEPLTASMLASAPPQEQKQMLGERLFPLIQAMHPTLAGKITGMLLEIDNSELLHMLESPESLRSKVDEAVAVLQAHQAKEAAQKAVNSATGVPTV
Assay [15] concerns the target Eukaryotic translation initiation factor 4H (Homo sapiens, UniProt Q15056). Kind of assay: human eIF4H binding inhibitors, primary screen, translation initiation inhibitor project, biochemical, uHTS, fluorescence polarization (AID 2012).
Assay [16] deals with X-box-binding protein 1 (Homo sapiens, UniProt P17861). Type of assay: functional, Cricetulus griseus.
Sequence of X-box-binding protein 1 (P17861 whole entry): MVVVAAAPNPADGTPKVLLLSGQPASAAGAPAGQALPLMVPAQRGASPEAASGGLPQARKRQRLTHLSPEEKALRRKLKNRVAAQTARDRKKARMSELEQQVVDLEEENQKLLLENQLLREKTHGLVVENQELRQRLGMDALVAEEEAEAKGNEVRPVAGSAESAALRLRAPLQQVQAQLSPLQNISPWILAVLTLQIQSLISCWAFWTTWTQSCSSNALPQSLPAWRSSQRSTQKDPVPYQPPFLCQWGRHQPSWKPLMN

The structures appear in SMILES notation. Active and inactive are the calls of the source.
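Throughout, for Absolute IC50 (XBP1): confirmatory dose-response counter-screen serving a CHOP assay.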

Consider `CC[n+]1c(/C=C2/C=CN(CCCS(=O)(=O)[O-])c3ccccc32)sc2ccccc21`, for which the IC50 in assay [1] was > 55.7 µM (not active); in [2] it was 2.69 µM (active); in assay [3], 2.97 µM (active); in assay [4] it was 12.3 µM (not active).

Turning to `COC(=O)c1ccc(NC(=O)CSc2nnc(C(C)NC(=O)c3ccccc3Cl)n2C)cc1` (stereo unspecified), the half-maximal effective concentration (EC50) is 19.8 µM (not active) in assay [5], 26.4 µM (not active) in assay [6] and 12.7 µM (not active) in assay [7].

In the case of `Cc1ccc(N2C(=O)NC(=O)/C(=C\c3ccc([N+](=O)[O-])o3)C2=O)cc1`, the IC50 in [8] was > 55.7 µM (not active); in assay [9] it was 5.55 µM (active).

In the case of `COC(=O)c1scc(S(=O)(=O)C(C)C)c1NN=C(C#N)C(=O)c1ccc(Cl)cc1`, the IC50 in [10] was 5.88 µM (active); in assay [11] it was > 20 µM (inactive); in assay [12], 10.9 µM (active); in [13] it was 5.43 µM (active).

For `CC[n+]1c(C)n(CC(O)COCC2CC=CCC2)c2ccccc21` (stereo unspecified), the IC50 is 2.12 µM (active) in assay [2], 3.86 µM (active) in assay [3], 5.47 µM (active) in assay [14] and 92.2 µM (active) in assay [15].

On to `CC(C)(C)C(=O)N1CCN(c2ccnc3cc(Cl)ccc23)CC1`, for which the IC50 in assay [1] is on record as 20.8 µM (not active); in assay [4] it was 18.6 µM (not active).

Take `C[N+]1(CCOS(=O)C23CC4CC(CC(C4)C2)C3)CCOCC1` (stereo unspecified): the concentration for half-maximal inhibition (IC50) in assay [14] was 11.8 µM (active); in [15] it was > 100 µM (inactive).

Turning to `CCC(=O)N1CCc2cc(S(=O)(=O)N3CCN(c4ccc(C(C)=O)cc4)CC3)ccc21`, the IC50 in [10], in assay [11], in assay [12] and in assay [13] was > 20 µM (inactive) in each case.

Consider `Oc1ccc(N=Nc2cccc(C(F)(F)F)c2)cc1/C=N/c1ccc(N2CCOCC2)cc1`, for which the “Absolute IC50 (XBP1)” value in assay [16] was found to be 10 µM.
